The record followed here is PubChem BioAssay AID330 (DTP/NCI, 2004).

Several values for one entry are separate records, joined by “and”; a condition that tells them apart may be missing. Equal entries are not always repeated. Inconclusive results and toxic doses are left out.

For the assay, the system named is P388 leukemia ip, CD2F1 mice, survival T/C. Put plainly: NCI In Vivo Anticancer Drug Screen. Data for tumor model P388 Leukemia (intraperitoneal) in CD2F1 (CDF1) mice. Conditions: endpoint: median survival time, higher = longer survival. An outline of the steps:
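Mice carrying the transplanted tumor received test compound or vehicle. Survival was recorded in each group, and the value is the treated-group measurement divided by that of the vehicle-treated control group.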

[1] abbreviates: dose: 100.0 mg/kg/injection, schedule: Q04DX003 (ip), vehicle: saline with Tween-80.
Setting [2] is: dose: 200.0 mg/kg/injection, schedule: Q04DX003 (ip), vehicle: saline with Tween-80.
Setting [3] is: dose: 100.0 mg/kg/injection, schedule: Q01DX001 (ip), vehicle: saline with Tween-80.
Setting [4] is: dose: 200.0 mg/kg/injection, schedule: Q01DX001 (ip), vehicle: saline with Tween-80.
The mark [5] stands for this setting: dose: 12.5 mg/kg/injection, schedule: Q01DX005 (ip), vehicle: Klucel (hydroxypropylcellulose) (HPC).
[6] abbreviates: dose: 25.0 mg/kg/injection, schedule: Q01DX005 (ip), vehicle: Klucel (hydroxypropylcellulose) (HPC).
Setting [7] is: dose: 50.0 mg/kg/injection, schedule: Q01DX005 (ip), vehicle: saline.
[8] abbreviates: dose: 50.0 mg/kg/injection, schedule: Q01DX005 (ip), vehicle: Klucel (hydroxypropylcellulose) (HPC).
The mark [9] stands for this setting: dose: 100.0 mg/kg/injection, schedule: Q01DX005 (ip), vehicle: Klucel (hydroxypropylcellulose) (HPC).
[10] abbreviates: dose: 25.0 mg/kg/injection, schedule: Q01DX005 (ip), vehicle: saline with Tween-80.
The mark [11] stands for this setting: dose: 50.0 mg/kg/injection, schedule: Q01DX005 (ip), vehicle: saline with Tween-80.
Setting [12] is: dose: 100.0 mg/kg/injection, schedule: Q01DX005 (ip), vehicle: saline with Tween-80.
Setting [13] is: dose: 100.0 mg/kg/injection, schedule: Q01DX001 (ip), vehicle: Klucel (hydroxypropylcellulose) (HPC).
Where [14] appears, read: dose: 50.0 mg/kg/injection, schedule: Q01DX009 (ip), vehicle: Klucel (hydroxypropylcellulose) (HPC).
Setting [15] is: dose: 100.0 mg/kg/injection, schedule: Q01DX009 (ip), vehicle: Klucel (hydroxypropylcellulose) (HPC).

Regarding `Cn1c2nc(=O)[nH]c(=O)c-2cc2ccccc21`, the T/C was 95 % of control (dose: 25.0 mg/kg/injection, schedule: Q04DX003 (ip), vehicle: saline with Tween-80); 93 % of control (dose: 50.0 mg/kg/injection, schedule: Q04DX003 (ip), vehicle: saline with Tween-80); 90 % of control under setting [1]; 94 % of control under setting [2].
Take `O=c1[nH]nc(-c2ccc(Br)cc2)s1`: the T/C runs as follows: under setting [1], 98 % of control; under setting [2], 100 % of control; (dose: 400.0 mg/kg/injection, schedule: Q04DX003 (ip), vehicle: saline with Tween-80) 99 % of control.
In the case of `CC(C)(C)c1ccc(O)c(C(c2cc(C(C)(C)C)ccc2O)c2cc(C(C)(C)C)ccc2O)c1`, the T/C was 97 % of control under setting [3]; 98 % of control under setting [4]; 98 % of control (dose: 400.0 mg/kg/injection, schedule: Q01DX001 (ip), vehicle: saline with Tween-80).
For `c1cnc2ncncc2n1`, the T/C (dose: 50.0 mg/kg/injection, schedule: Q01DX009 (ip), vehicle: saline with Tween-80) is 104 % of control and 111 % of control; the T/C (dose: 100.0 mg/kg/injection, schedule: Q01DX009 (ip), vehicle: saline with Tween-80) was 120 % of control; the T/C (dose: 200.0 mg/kg/injection, schedule: Q01DX009 (ip), vehicle: saline with Tween-80) was 150 % of control.
In the case of `CCOC(=N)N1[C@H](C)[C@@H]1C`, the T/C reads like this: under setting [5], 109 % of control; under setting [6], 124 % of control; under setting [7], 86 % of control.
`c1ccc2c(SC3CCC4CC5CC4C3C5)nccc2c1` (stereo unspecified): the T/C is 91 % of control (dose: 60.0 mg/kg/injection, schedule: Q01DX005 (ip), vehicle: saline with Tween-80); 94 % of control (dose: 120.0 mg/kg/injection, schedule: Q01DX005 (ip), vehicle: saline with Tween-80); 91 % of control (dose: 240.0 mg/kg/injection, schedule: Q01DX005 (ip), vehicle: saline with Tween-80).
Take `CC1(C)Oc2ccc3ccccc3c2C(c2ccc(O)cc2)=C1c1ccccc1`: the T/C was 103 % of control under setting [8]; 99 % of control under setting [9]; 94 % of control (dose: 200.0 mg/kg/injection, schedule: Q01DX005 (ip), vehicle: Klucel (hydroxypropylcellulose) (HPC)).
Take `CN1CCC23c4c5ccc(O)c4OC2C(=NN=C2CCC4(O)C6Cc7ccc(O)c8c7C4(CCN6C)C2O8)CCC3(O)C1C5` (stereo unspecified): the T/C reads like this: (dose: 12.5 mg/kg/injection, schedule: Q01DX005 (ip), vehicle: saline with Tween-80) 96 % of control; under setting [10], 90 % of control.
Turning to `COc1nc2cc3c(cc2n2cccc12)oc1ccccc13`, the T/C runs as follows: under setting [10], 95 % of control; under setting [11], 96 % of control; under setting [12], 102 % of control.
As to `C=C1C(=O)C[C@@H]2CC(C)(C)C[C@]12CC(=O)O`, the T/C is, setting by setting: (dose: 2.5 mg/kg/injection, schedule: Q01DX005 (ip), vehicle: water) 90 % of control; (dose: 5.0 mg/kg/injection, schedule: Q01DX005 (ip), vehicle: water) 109 % of control; (dose: 10.0 mg/kg/injection, schedule: Q01DX005 (ip), vehicle: water) 97 % of control; (dose: 20.0 mg/kg/injection, schedule: Q01DX005 (ip), vehicle: water) 98 % of control; (dose: 40.0 mg/kg/injection, schedule: Q01DX005 (ip), vehicle: water) 101 % of control.
With `CC(C)N1CCN(c2ccc(OCC3COC(Cn4cncn4)(c4ccc(Cl)cc4Cl)O3)cc2)CC1` (stereo unspecified), the T/C runs as follows: under setting [8], 100 % of control; under setting [9], 101 % of control.
Regarding `Cc1cc(N(CCOS(C)(=O)=O)CCOS(C)(=O)=O)ccc1C=O`, the T/C (dose: 3.12 mg/kg/injection, schedule: Q01DX009 (ip), vehicle: Klucel (hydroxypropylcellulose) (HPC)) was 150 % of control and 176 % of control; the T/C (dose: 6.25 mg/kg/injection, schedule: Q01DX009 (ip), vehicle: Klucel (hydroxypropylcellulose) (HPC)) was 174 % of control and 196 % of control; the T/C (dose: 12.5 mg/kg/injection, schedule: Q01DX009 (ip), vehicle: Klucel (hydroxypropylcellulose) (HPC)) is 110 % of control and 213 % of control and 217 % of control.
For `O=C1C(N=Nc2cc(Cl)ccc2Cl)C(O)N(c2ccccc2)C(=S)N1c1cccc(Cl)c1Cl` (stereo unspecified), the T/C by setting is: under setting [13], 98 % of control; (dose: 200.0 mg/kg/injection, schedule: Q01DX001 (ip), vehicle: Klucel (hydroxypropylcellulose) (HPC)) 97 % of control; (dose: 400.0 mg/kg/injection, schedule: Q01DX001 (ip), vehicle: Klucel (hydroxypropylcellulose) (HPC)) 92 % of control.
For `COc1cccc2nncn12`, the T/C is, setting by setting: (dose: 50.0 mg/kg/injection, schedule: Q01DX001 (ip), vehicle: saline) 100 % of control; (dose: 100.0 mg/kg/injection, schedule: Q01DX001 (ip), vehicle: saline) 100 % of control; (dose: 200.0 mg/kg/injection, schedule: Q01DX001 (ip), vehicle: saline) 100 % of control.
For `CC(=O)O.CC(=O)O.CC[OH+]CC[OH+]CC[OH+]C1CCCC2CCC[N-]C21.[Zn]` (stereo unspecified), the T/C is 111 % of control (dose: 6.25 mg/kg/injection, schedule: Q01DX005 (ip), vehicle: Klucel (hydroxypropylcellulose) (HPC)); 105 % of control and 113 % of control (2×) under setting [5]; 109 % of control and 113 % of control and 116 % of control under setting [6].
For `CC(/C=C/c1ccc(O)cc1)=N\NC(N)=S`, the T/C is, setting by setting: (dose: 3.75 mg/kg/injection, schedule: Q01DX005 (ip), vehicle: Klucel (hydroxypropylcellulose) (HPC)) 103 % of control; (dose: 7.5 mg/kg/injection, schedule: Q01DX005 (ip), vehicle: Klucel (hydroxypropylcellulose) (HPC)) 99 % of control; (dose: 15.0 mg/kg/injection, schedule: Q01DX005 (ip), vehicle: Klucel (hydroxypropylcellulose) (HPC)) 99 % of control; (dose: 30.0 mg/kg/injection, schedule: Q01DX005 (ip), vehicle: Klucel (hydroxypropylcellulose) (HPC)) 99 % of control and 104 % of control.
As for `COc1cc(C/C(=C\c2cc(OC)c(OC)c(OC)c2)[N+](=O)[O-])ccc1OCc1ccccc1`, the T/C by setting is: (dose: 50.0 mg/kg/injection, schedule: Q01DX001 (ip), vehicle: Klucel (hydroxypropylcellulose) (HPC)) 93 % of control; under setting [13], 94 % of control.
For the compound `COC(=O)C1(CC(=O)c2c(C)[nH]c3ccccc23)NC(=S)NC(=O)C1C#N` (stereo unspecified), the T/C was 100 % of control (dose: 60.0 mg/kg/injection, schedule: Q01DX005 (ip), vehicle: Klucel (hydroxypropylcellulose) (HPC)); 100 % of control (dose: 120.0 mg/kg/injection, schedule: Q01DX005 (ip), vehicle: Klucel (hydroxypropylcellulose) (HPC)); 100 % of control (dose: 240.0 mg/kg/injection, schedule: Q01DX005 (ip), vehicle: Klucel (hydroxypropylcellulose) (HPC)).
Take `Cc1c([N+](=O)[O-])oc2c1C(=O)NCCC2`: the T/C runs as follows: under setting [14], 104 % of control; under setting [15], 91 % of control; (dose: 200.0 mg/kg/injection, schedule: Q01DX009 (ip), vehicle: Klucel (hydroxypropylcellulose) (HPC)) 108 % of control.
With `CCOC(=O)Nc1cc(NCC(=O)c2ccc(Cl)cc2)c([N+](=O)[O-])c(N)n1`, the T/C (dose: 50.0 mg/kg/injection, schedule: Q01DX001 (ip), vehicle: saline with Tween-80) was 92 % of control; the T/C under setting [3] is 90 % of control; the T/C under setting [4] is 88 % of control.
As to `O=C(C[n+]1ccccc1)NC(O)C(Cl)(Cl)Cl` (stereo unspecified), the T/C is 106 % of control under setting [7]; 105 % of control (dose: 100.0 mg/kg/injection, schedule: Q01DX005 (ip), vehicle: saline); 109 % of control (dose: 200.0 mg/kg/injection, schedule: Q01DX005 (ip), vehicle: saline).
`COC(=O)c1ccc(OCCC(=O)CCl)cc1`: the T/C under setting [14] is 102 % of control and the T/C under setting [15] is 106 % of control.
`CCCCCCCCCCCCCCCC[N+]1(CC)CCCCC1`: the T/C was 121 % of control (dose: 0.59 mg/kg/injection, schedule: Q01DX009 (ip), vehicle: saline) and 89 % of control (dose: 0.78 mg/kg/injection, schedule: Q01DX009 (ip), vehicle: saline).
Turning to `NC(CCSCc1ccccc1)P(=O)(O)O` (stereo unspecified), the T/C is, setting by setting: under setting [11], 100 % of control; under setting [12], 97 % of control; (dose: 200.0 mg/kg/injection, schedule: Q01DX005 (ip), vehicle: saline with Tween-80) 92 % of control.
